This note sets out measurements from article PMC5013292, “A Putative Bacterial ABC Transporter Circumvents the Essentiality of Signal Peptidase” (mBio, 2016).

In brackets after ≈: the same amount, converted by molar mass. A value given as a limit tells only on which side of the number the result lay.

Experiment [1] has as its system S. aureus USA300 SAUSA300_0352(K44A) mutant (strain GNE0174). The experiment can be described thus: MIC, K44A mutant GNE0174. Type of experiment: cell-based. As to the method: (§1) MICs were determined according to the standard protocol from the Clinical and Laboratory Standards Institute ([23]). Briefly, S. aureus bacteria were harvested from regular MHA plates that had been cultured for ~20 h at 37°C. Serial dilutions of compound 103 were incubated with bacteria at approximately 10^6 CFU (CFU)/ml in MHB in round-bottom 96 well plates (Corning, Corning, NY) for 22 h at 37°C. MICs were determined by the lowest concentration of compound 103 showing absence of growth by visual inspection.
(§2) To generate mutations in SAUSA300_0351, _0352, and _0353 genes by homologous recombination, we transformed USA300 Δmcr using targeting constructs created in the vector pIMAY ([24]). To generate mutations in SAUSA300_0351, _0352, and _0353 genes in a cro/cI mutant background, we selected colonies from USA300 Δmcr cultured on plates containing fourfold the MIC of compound 103. Sequencing of PCR products of the cro/cI gene from resistant colonies yielded a clone with a Q16stop codon mutation in cro/cI (strain GNE0173). We further mutated SAUSA300_0351, _0352, and _0353 in this USA300 Δmcr cro/cI (Q16stop) clone to study the contributions of these three genes to cro/cI-mediated resistance.

Experiment [2] relates to USA300 WT strain (strain GNE0023). Kind of experiment: MIC, parental USA300 WT strain GNE0023. Type of experiment: cell-based, S. aureus. The protocol: as §1, §2
Experiment [3] has as its system S. aureus USA300 wild type. Kind of experiment: microbe, parasite or virus in culture. In kind it is cell-based.
Source text: Wild-type clinical S. aureus strains were obtained from the Network on Antibiotic Resistance in Staphylococcus aureus (NARSA/BEI) program. MRSA strain USA300 refers throughout this paper to strain NRS384 from NARSA/BEI. A global panel of 102 clinical S. aureus isolates was selected from the collection of International Health Management Associates, Inc. (IHMA; Schaumburg, IL), based on diversity of geographic locations, antibiotic resistance profiles, and sites of infection. Bacteria were cultured on cation-adjusted Mueller-Hinton agar (MHA) plates or in cation-adjusted Mueller-Hinton broth (MHB). Bacterial strains used in this study are listed in Table S5 in the supplemental material.
as §1

Experiment [4] concerns S. aureus USA300 cro/cI (M1V) (GNE0117). Kind of experiment: MIC, cro/cI(M1V) mutant. Type of experiment: cell-based. Particulars: for effect of cro/cI mutation on sensitivity to antibiotics: result in words, versus USA300 WT. As to the method: as §1
[5] abbreviates: S. aureus USA300 cro/cI (M1V) (GNE0117), Table S2.

Regarding protamine, the MIC in experiment [1] and in experiment [2] was 8 µg/mL each time.

`CO[C@H]1/C=C/O[C@@]2(C)Oc3c(C)c(O)c4c(O)c(c(/C=N/N5CCN(C)CC5)c(O)c4c3C2=O)NC(=O)/C(C)=C\C=C\[C@H](C)[C@H](O)[C@@H](C)[C@@H](O)[C@@H](C)[C@H](OC(C)=O)[C@@H]1C` [Rifampicin]: the MIC in experiment [3] (Staphylococcus aureus, USA300) was 0.06 µg/mL (≈ 0.0729 µM). The “effect of cro/cI mutation on sensitivity to antibiotics” value (“effect of cro/cI mutation” for short) in experiment [4] is “did not reduce sensitivity”.

For the compound `CN[C@H](CC(C)C)C(=O)N[C@H]1C(=O)N[C@@H](CC(N)=O)C(=O)N[C@H]2C(=O)N[C@H]3C(=O)N[C@H](C(=O)N[C@H](C(=O)O)c4cc(O)cc(O)c4-c4cc3ccc4O)[C@H](O)c3ccc(c(Cl)c3)Oc3cc2cc(c3O[C@@H]2O[C@H](CO)[C@@H](O)[C@H](O)[C@H]2O[C@H]2C[C@](C)(N)[C@H](O)[C@H](C)O2)Oc2ccc(cc2Cl)[C@H]1O` [Vancomycin], the MIC in experiment [3] (S. aureus USA300 WT, Table S2) came out at 2 µg/mL (≈ 1.38 µM); in experiment [4] (setting [5]), 1 µg/mL (≈ 0.69 µM). For the same compound, the “effect of cro/cI mutation” value in experiment [4] was “did not reduce sensitivity”.

As to `CC[C@H]1OC(=O)[C@H](C)[C@@H](O[C@H]2C[C@@](C)(OC)[C@@H](O)[C@H](C)O2)[C@H](C)[C@@H](O[C@@H]2O[C@H](C)C[C@H](N(C)C)[C@H]2O)[C@](C)(O)C[C@@H](C)C(=O)[C@H](C)[C@@H](O)[C@]1(C)O` [Erythromycin], the MIC in experiment [3] (Staphylococcus aureus, USA300) was greater than 64 µg/mL; in experiment [4] (Staphylococcus aureus, USA300), greater than 64 µg/mL. The “effect of cro/cI mutation” value in experiment [4] was “did not reduce sensitivity”.

Regarding `COc1c(N2CCNC(C)C2)c(F)cc2c(=O)c(C(=O)O)cn(C3CC3)c12` (stereo not drawn) [Gatifloxacin], the MIC in experiment [3] (Staphylococcus aureus, USA300) was 0.5 µg/mL (≈ 1.33 µM). Besides, the “effect of cro/cI mutation” value in experiment [4] is reported as “did not reduce sensitivity”.

In turn, `CNC(C)C1CCC(N)C(OC2C(N)CC(N)C(OC3OCC(C)(O)C(NC)C3O)C2O)O1` (stereo not drawn) [Gentamycin] yielded an MIC in experiment [3] (Staphylococcus aureus, USA300) of 1 µg/mL (≈ 2.09 µM). The “effect of cro/cI mutation” value in experiment [4] is “did not reduce sensitivity”.

Compound `CO[C@@H]1[C@@H](OC(N)=O)[C@@H](O)[C@H](Oc2ccc3c(O)c(NC(=O)c4ccc(O)c(CC=C(C)C)c4)c(=O)oc3c2C)OC1(C)C` [Novobiocin] displayed an MIC in experiment [3] (Staphylococcus aureus, USA300) of 0.25 µg/mL (≈ 0.408 µM). The “effect of cro/cI mutation” value in experiment [4] is on record as “did not reduce sensitivity”.

For `CCC[C@@H]1C[C@@H](C(=O)N[C@@H]([C@H]2O[C@H](SC)[C@H](O)[C@@H](O)[C@H]2O)[C@H](C)Cl)N(C)C1` [Clindamycin], in experiment [3] (Staphylococcus aureus, USA300), the MIC was determined as 0.25 µg/mL (≈ 0.588 µM). Besides, in experiment [4], the “effect of cro/cI mutation” value is listed as “did not reduce sensitivity”.

Consider `Cc1onc(-c2ccccc2)c1C(=O)N[C@@H]1C(=O)N2[C@@H]1SC(C)(C)[C@@H]2C(=O)O` [Oxacillin], for which the MIC in experiment [3] (Staphylococcus aureus, USA300) came out at 64 µg/mL (≈ 159 µM). Further, in experiment [4], the “effect of cro/cI mutation” value is listed as “did not reduce sensitivity”.

Take `CCCCCCCCCC(=O)N[C@@H](Cc1c[nH]c2ccccc12)C(=O)N[C@H](CC(N)=O)C(=O)N[C@@H](CC(=O)O)C(=O)N[C@@H]1C(=O)NCC(=O)N[C@@H](CCCN)C(=O)N[C@@H](CC(=O)O)C(=O)N[C@H](C)C(=O)N[C@@H](CC(=O)O)C(=O)NCC(=O)N[C@H](CO)C(=O)N[C@@H]([C@H](C)CC(=O)O)C(=O)N[C@@H](CC(=O)c2ccccc2N)C(=O)O[C@@H]1C` [Daptomycin]: the MIC is on record as 2 µg/mL (≈ 1.23 µM) in experiment [3] (S. aureus USA300 WT, Table S2) and 2 µg/mL (≈ 1.23 µM) in experiment [4] (setting [5]). Further, in experiment [4], the “effect of cro/cI mutation” value is “did not reduce sensitivity”.

Turning to `CC(=O)NC[C@H]1CN(c2ccc(N3CCOCC3)c(F)c2)C(=O)O1` [Linezolid], in experiment [3] (Staphylococcus aureus, USA300), the MIC was 4 µg/mL (≈ 11.9 µM). In addition, the “effect of cro/cI mutation” value in experiment [4] was “did not reduce sensitivity”.

With nisin, the MIC in experiment [1] and in experiment [2] was 200 µg/mL throughout.
